The source of these data is patent publication US20250145633A1, “SUBSTITUTED FURANOPYRIMIDINE COMPOUNDS AS PDE1 INHIBITORS” (Dart NeuroScience, LLC, priority 2017, published 2025).

The structures appear in SMILES notation. A value given as a limit tells only on which side of the number the result lay.

The target in the first assay is human PDE1B enzyme (Homo sapiens (Human), UniProt Q01064). The assay is described as follows: IMAP TR-FRET PDE1B enzymatic assay. Type of assay: biochemical. As to conditions: negative log of half-maximal molar inhibitory concentration; 200 nM FAM-cAMP; values given as bins. Summed up: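 Full-length GST-tagged human PDE1B (250 pg/well) in IMAP BSA buffer with 10 U/ml calmodulin and 2.5 mM CaCl2; compound pre-incubated 5 min at room temperature, then 200 nM (final) FAM-cAMP for 30 min. IMAP binding reagent/Tb added, 1 h; TR-FRET 520/490 ratio read. IC50 from sigmoidal dose-response fit.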
(In general: TR-FRET usually uses a lanthanide donor and a delayed reading to cut background.)
Consider `COc1cccc(C2CCN(C(=O)c3c(C)oc4ncnc(NC5(C)CC5)c34)CC2)n1` [Example 422, 5-[4-(6-Methoxypyridin-2-yl)piperidine-1-carbonyl]-6-methyl-N-(1-methylcyclopropyl)furo[2,3-d]pyrimidin-4-amine], for which the “PDE1b (pIC50)” value is over 8.

The same assay, now with this note: negative log of half-maximal molar inhibitory concentration; 200 nM FAM-cAMP; values given as bins; read-out: PDE1b (pIC50) (converted).
Turning to `Cc1oc2ncnc(NC3(C)CC3)c2c1C(=O)N1CCC(Cc2ccc(F)cc2)C1` (centres unmarked) [Example 414, 5-{3-[(4-Fluorophenyl)methyl]pyrrolidine-1-carbonyl}-6-methyl-N-(1-methylcyclopropyl)furo[2,3-d]pyrimidin-4-amine], the IC50 was 10 to 100 nM. On the same count and under the same terms, next, `Cc1nn(C(=O)c2c(C)oc3ncnc(NC4(C)CC4)c23)c(C)c1CN1CCOCC1` [Example 415, 5-[3,5-Dimethyl-4-(morpholin-4-ylmethyl)-1H-pyrazole-1-carbonyl]-6-methyl-N-(1-methylcyclopropyl)furo[2,3-d]pyrimidin-4-amine]: 10 to 100 nM. On the same count and under the same terms, next, `Cc1oc2ncnc(NC3(C)CC3)c2c1C(=O)Nc1ccn(C)n1` [Example 416, 6-Methyl-N-(1-methyl-1H-pyrazol-3-yl)-4-[(1-methylcyclopropyl)amino]furo[2,3-d]pyrimidine-5-carboxamide]: 10 to 100 nM; `Cc1oc2ncnc(NC3(C)CC3)c2c1C(=O)Nc1cnn(C)c1C` [Example 417, N-(1,5-Dimethyl-1H-pyrazol-4-yl)-6-methyl-4-[(1-methylcyclopropyl)amino]furo[2,3-d]pyrimidine-5-carboxamide]: 10 to 100 nM; `Cc1nn(C)c(C)c1NC(=O)c1c(C)oc2ncnc(NC3(C)CC3)c12` [Example 418, 6-Methyl-4-[(1-methylcyclopropyl)amino]-N-(trimethyl-1H-pyrazol-4-yl)furo[2,3-d]pyrimidine-5-carboxamide]: 10 to 100 nM. Consider `Cc1oc2ncnc(NC3(C)CC3)c2c1C(=O)Nc1cnn(-c2ccccn2)c1` [Example 419, 6-Methyl-4-[(1-methylcyclopropyl)amino]-N-[1-(pyridin-2-yl)-1H-pyrazol-4-yl]furo[2,3-d]pyrimidine-5-carboxamide], for which the IC50 is 10 to 100 nM. For the compound `COCCn1nc(C)c(NC(=O)c2c(C)oc3ncnc(NC4(C)CC4)c23)c1C` [Example 420, N-[1-(2-Methoxyethyl)-3,5-dimethyl-1H-pyrazol-4-yl]-6-methyl-4-[(1-methylcyclopropyl)amino]furo[2,3-d]pyrimidine-5-carboxamide], the IC50 is 10 to 100 nM.

Regarding `Cc1oc2ncnc(NC3(C)CC3)c2c1C(=O)Nc1cnn(CCN2CCOCC2)c1` [Example 421, 6-Methyl-4-[(1-methylcyclopropyl)amino]-N-{1-[2-(morpholin-4-yl)ethyl]-1H-pyrazol-4-yl}furo[2,3-d]pyrimidine-5-carboxamide], the IC50 was 10 to 100 nM. As for `COc1cnc(C2CCN(C(=O)c3c(C)oc4ncnc(NC5(C)CC5)c34)CC2)nc1C` [Example 423, 5-[4-(5-Methoxy-4-methylpyrimidin-2-yl)piperidine-1-carbonyl]-6-methyl-N-(1-methylcyclopropyl)furo[2,3-d]pyrimidin-4-amine], the IC50 was 10 to 100 nM. Turning to `Cc1oc2ncnc(NC3(C)CC3)c2c1C(=O)N1CCc2c(nc(-c3ccc(F)cc3)[nH]c2=O)C1` [Example 424, 2-(4-Fluorophenyl)-7-{6-methyl-4-[(1-methylcyclopropyl)amino]furo[2,3-d]pyrimidine-5-carbonyl}-3H,4H,5H,6H,7H,8H-pyrido[3,4-d]pyrimidin-4-one], the IC50 was 10 to 100 nM. As for `COCc1nc2c(c(=O)[nH]1)CCN(C(=O)c1c(C)oc3ncnc(NC4(C)CC4)c13)C2` [Example 425, 2-(Methoxymethyl)-7-{6-methyl-4-[(1-methylcyclopropyl)amino]furo[2,3-d]pyrimidine-5-carbonyl}-3H,4H,5H,6H,7H,8H-pyrido[3,4-d]pyrimidin-4-one], the IC50 is 100 to 1000 nM.

Consider `Cc1cccc(NC(=O)c2c(C)oc3ncnc(NC4(C)CC4)c23)n1` [Example 426, 6-Methyl-4-[(1-methylcyclopropyl)amino]-N-(6-methylpyridin-2-yl)furo[2,3-d]pyrimidine-5-carboxamide], for which the IC50 is 10 to 100 nM. For the compound `Cc1ccnc(NC(=O)c2c(C)oc3ncnc(NC4(C)CC4)c23)c1` [Example 427, 6-Methyl-4-[(1-methylcyclopropyl)amino]-N-(4-methylpyridin-2-yl)furo[2,3-d]pyrimidine-5-carboxamide], the IC50 is 100 to 1000 nM.

Regarding `Cc1cccnc1NC(=O)c1c(C)oc2ncnc(NC3(C)CC3)c12` [Example 428, 6-Methyl-4-[(1-methylcyclopropyl)amino]-N-(3-methylpyridin-2-yl)furo[2,3-d]pyrimidine-5-carboxamide], the IC50 is 100 to 1000 nM. As for `COCCn1cc(NC(=O)c2c(C)oc3ncnc(NC4(C)CC4)c23)cn1` [Example 429, N-[1-(2-Methoxyethyl)-1H-pyrazol-4-yl]-6-methyl-4-[(1-methylcyclopropyl)amino]furo[2,3-d]pyrimidine-5-carboxamide], the IC50 is 10 to 100 nM.

As for `Cc1oc2ncnc(NC3(C)CC3)c2c1C(=O)NC12CC(C1)C2` [Example 430, N-{Bicyclo[1.1.1]pentan-1-yl}-6-methyl-4-[(1-methylcyclopropyl)amino]furo[2,3-d]pyrimidine-5-carboxamide], the IC50 is 10 to 100 nM.

Regarding `Cc1oc2ncnc(NC3(C)CC3)c2c1C(=O)N1CCC(c2ncc(C(F)(F)F)cn2)CC1` [Example 431, 6-Methyl-N-(1-methylcyclopropyl)-5-{4-[5-(trifluoromethyl)pyrimidin-2-yl]piperidine-1-carbonyl}furo[2,3-d]pyrimidin-4-amine], the IC50 is 10 to 100 nM.

As to `Cc1cn(C)nc1NC(=O)c1c(C)oc2ncnc(NC3(C)CC3)c12` [Example 432, N-(1,4-Dimethyl-1H-pyrazol-3-yl)-6-methyl-4-[(1-methylcyclopropyl)amino]furo[2,3-d]pyrimidine-5-carboxamide], the IC50 was 10 to 100 nM.

On to `Cc1nc(NC(=O)c2c(C)oc3ncnc(NC4(C)CC4)c23)sc1C` [Example 433, N-(Dimethyl-1,3-thiazol-2-yl)-6-methyl-4-[(1-methylcyclopropyl)amino]furo[2,3-d]pyrimidine-5-carboxamide], for which the IC50 was 10 to 100 nM. Regarding `Cc1ccc(NC(=O)c2c(C)oc3ncnc(NC4(C)CC4)c23)nn1` [Example 434, 6-Methyl-4-[(1-methylcyclopropyl)amino]-N-(6-methylpyridazin-3-yl)furo[2,3-d]pyrimidine-5-carboxamide], the IC50 is 100 to 1000 nM. The same measure, in the same setting: the result for `Cc1oc2ncnc(NC3(C)CC3)c2c1C(=O)Nc1cn(C)cn1` [Example 435, 6-Methyl-N-(1-methyl-1H-imidazol-4-yl)-4-[(1-methylcyclopropyl)amino]furo[2,3-d]pyrimidine-5-carboxamide] reads 100 to 1000 nM; that for `Cc1nc(NC(=O)c2c(C)oc3ncnc(NC4(C)CC4)c23)ccc1F` [Example 436, N-(5-Fluoro-6-methylpyridin-2-yl)-6-methyl-4-[(1-methylcyclopropyl)amino]furo[2,3-d]pyrimidine-5-carboxamide], 10 to 100 nM. Turning to `Cc1cncc(NC(=O)c2c(C)oc3ncnc(NC4(C)CC4)c23)n1` [Example 437, 6-Methyl-4-[(1-methylcyclopropyl)amino]-N-(6-methylpyrazin-2-yl)furo[2,3-d]pyrimidine-5-carboxamide], the IC50 is 100 to 1000 nM.

With `Cc1ccc(NC(=O)c2c(C)oc3ncnc(NC4(C)CC4)c23)nc1` [Example 438, 6-Methyl-4-[(1-methylcyclopropyl)amino]-N-(5-methylpyridin-2-yl)furo[2,3-d]pyrimidine-5-carboxamide], the IC50 is 100 to 1000 nM. With `Cc1oc2ncnc(NC3(C)CC3)c2c1C(=O)Nc1cc(C)n(C)n1` [Example 439, N-(1,5-Dimethyl-1H-pyrazol-3-yl)-6-methyl-4-[(1-methylcyclopropyl)amino]furo[2,3-d]pyrimidine-5-carboxamide], the IC50 is 100 to 1000 nM. `COCCn1ccc(NC(=O)c2c(C)oc3ncnc(NC4(C)CC4)c23)n1` [Example 440, N-[1-(2-Methoxyethyl)-1H-pyrazol-3-yl]-6-methyl-4-[(1-methylcyclopropyl)amino]furo[2,3-d]pyrimidine-5-carboxamide]: the IC50 is 10 to 100 nM. For `Cc1ncc(NC(=O)c2c(C)oc3ncnc(NC4(C)CC4)c23)nc1C` [Example 441, N-(5,6-Dimethylpyrazin-2-yl)-6-methyl-4-[(1-methylcyclopropyl)amino]furo[2,3-d]pyrimidine-5-carboxamide], the IC50 is 10 to 100 nM. Regarding `Cc1nc(NC(=O)c2c(C)oc3ncnc(NC4(C)CC4)c23)oc1C` [Example 442, N-(Dimethyl-1,3-oxazol-2-yl)-6-methyl-4-[(1-methylcyclopropyl)amino]furo[2,3-d]pyrimidine-5-carboxamide], the IC50 is 10 to 100 nM. On to `Cc1csc(NC(=O)c2c(C)oc3ncnc(NC4(C)CC4)c23)n1` [Example 443, 6-Methyl-N-(4-methyl-1,3-thiazol-2-yl)-4-[(1-methylcyclopropyl)amino]furo[2,3-d]pyrimidine-5-carboxamide], for which the IC50 is 10 to 100 nM. Same read-out and setting: next, `Cc1oc2ncnc(NC3(C)CC3)c2c1C(=O)N1CCC(C#N)(c2cccc(F)n2)CC1` [Example 444, 4-(6-Fluoropyridin-2-yl)-1-{6-methyl-4-[(1-methylcyclopropyl)amino]furo[2,3-d]pyrimidine-5-carbonyl}piperidine-4-carbonitrile]: 10 to 100 nM; `Cc1oc2ncnc(NC3(C)CC3)c2c1C(=O)Nc1ccn(C(C)C)n1` [Example 445, 6-Methyl-4-[(1-methylcyclopropyl)amino]-N-[1-(propan-2-yl)-1H-pyrazol-3-yl]furo[2,3-d]pyrimidine-5-carboxamide]: 10 to 100 nM.
